From article PMC2777269 (Nature medicine, 2002)
Read-outs that look alike come from different tables or passages of the source. One block for each molecule: values may come before it. Ends that are not written are not given here. * marks the point of attachment. 125I = [125I]*

Experiments:
human PMNs [1] = experiment: Ca^2+ mobilization in Fura2-AM-loaded human PMNs
[2] = tested on: PMN transmigration and adhesion; settings: cited from earlier work
human PMNs [3] = experiment: Human PMN chemotaxis; settings: n = 3
[4] = tested on: recombinant ALXR/FPRL1 (CHO-Gqo-ALXR cells); experiment: Chemotaxis of CHO cells expressing ALXR and Gqo chimera; settings: ATLa1 100 nM, Ac2-26 100 μM; 4 h, 37 °C; n = 3
[5] = tested on: Zymosan A-driven PMN infiltration; experiment: Zymosan A-initiated PMN infiltration, 6-day-old murine air pouch; settings: 4 h; for inhibition of Zymosan A-driven PMN infiltration: mean, n = 8
[6] = tested on: human LTB4 receptor (BLT1); settings: BLT1-transfected HEK293 cells; cited from earlier work
human PMNs (ALXR/FPRL1) = molecular target: T1, human PMNs (ALXR/FPRL1) (Homo sapiens, UniProt P25090); experiment: [^125I-Tyr]Ac2-26 binding, isolated human PMNs in suspension; settings: 30 nM [^125I-Tyr]Ac2-26, 40 min, 4 °C, duplicates, n = 3
T1 sequence (P25090 1-351): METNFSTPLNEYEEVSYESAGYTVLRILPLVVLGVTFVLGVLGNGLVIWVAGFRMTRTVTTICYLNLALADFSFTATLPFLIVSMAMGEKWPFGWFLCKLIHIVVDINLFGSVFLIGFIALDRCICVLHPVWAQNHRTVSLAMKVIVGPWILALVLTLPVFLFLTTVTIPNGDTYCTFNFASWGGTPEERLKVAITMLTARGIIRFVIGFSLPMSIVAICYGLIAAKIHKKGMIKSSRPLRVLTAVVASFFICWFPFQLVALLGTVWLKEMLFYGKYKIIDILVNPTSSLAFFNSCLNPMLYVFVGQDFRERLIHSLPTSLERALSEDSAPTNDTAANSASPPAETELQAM

recombinant ALXR/FPRL1 = molecular target: T2, recombinant ALXR/FPRL1 (Homo sapiens, UniProt P25090); settings: HEK293-ALXR, 30 nM [^125I-Tyr]Ac2-26, 40 min, 4 °C; duplicates, n = 3
T2 sequence (P25090 1-351): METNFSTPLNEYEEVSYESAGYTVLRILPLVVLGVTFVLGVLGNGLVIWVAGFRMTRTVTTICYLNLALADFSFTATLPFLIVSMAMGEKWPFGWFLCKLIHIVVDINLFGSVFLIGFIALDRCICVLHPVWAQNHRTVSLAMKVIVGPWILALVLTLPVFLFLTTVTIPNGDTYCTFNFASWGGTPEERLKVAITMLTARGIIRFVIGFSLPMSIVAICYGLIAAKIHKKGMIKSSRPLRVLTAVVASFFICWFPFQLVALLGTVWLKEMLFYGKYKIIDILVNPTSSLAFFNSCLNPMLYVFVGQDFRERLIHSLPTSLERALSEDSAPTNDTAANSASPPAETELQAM

monocytes/macrophages = settings: nonphlogistic; cited from earlier work
[7] = molecular target: T3, adherent human PMNs (ALXR/FPRL1) (Homo sapiens, UniProt P25090); experiment: [^125I-Tyr]Ac2-26 binding, adherent human PMNs; settings: 30 nM [^125I-Tyr]Ac2-26, duplicates, n = 3
T3 sequence (P25090 1-351): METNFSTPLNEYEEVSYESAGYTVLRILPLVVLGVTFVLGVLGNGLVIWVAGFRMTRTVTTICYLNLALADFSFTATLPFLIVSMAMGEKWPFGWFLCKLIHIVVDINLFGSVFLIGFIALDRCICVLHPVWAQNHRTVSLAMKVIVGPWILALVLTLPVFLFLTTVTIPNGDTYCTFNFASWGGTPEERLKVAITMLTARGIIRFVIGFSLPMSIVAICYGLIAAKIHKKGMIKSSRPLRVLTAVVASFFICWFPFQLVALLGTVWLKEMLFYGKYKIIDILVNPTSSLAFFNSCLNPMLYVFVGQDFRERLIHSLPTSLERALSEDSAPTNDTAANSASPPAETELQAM

15-epi-LXA4 = 15-epi-LXA4 generation in murine air-pouch exudates; assay type: in vivo, Swiss Albino mice; settings: ASA 300 μg; 4 and 16 h; n = 8
ANXA1 = ANXA1 generation in murine air-pouch exudates; assay type: in vivo, Swiss Albino mice; settings: 4 h versus 16 h; n = 8
[8] = tested on: formyl peptide receptors (FPRs); settings: partially diminished; cited from earlier work
ALXR/FPRL1 [9] = experiment: ANXA1/ALXR co-immunoprecipitation, human PMNs; assay type: binding; settings: non-adherent human PMNs (control)
[10] = tested on: PMN transmigration and phagocytosis; settings: in vitro and in vivo; cited from earlier work
[11] = molecular target: T4, human recombinant lipoxin A4 receptor (ALXR/FPRL1) expressed on HEK293 cells (human, UniProt P25090 1-351); experiment: radioligand binding
T4 sequence (looked up): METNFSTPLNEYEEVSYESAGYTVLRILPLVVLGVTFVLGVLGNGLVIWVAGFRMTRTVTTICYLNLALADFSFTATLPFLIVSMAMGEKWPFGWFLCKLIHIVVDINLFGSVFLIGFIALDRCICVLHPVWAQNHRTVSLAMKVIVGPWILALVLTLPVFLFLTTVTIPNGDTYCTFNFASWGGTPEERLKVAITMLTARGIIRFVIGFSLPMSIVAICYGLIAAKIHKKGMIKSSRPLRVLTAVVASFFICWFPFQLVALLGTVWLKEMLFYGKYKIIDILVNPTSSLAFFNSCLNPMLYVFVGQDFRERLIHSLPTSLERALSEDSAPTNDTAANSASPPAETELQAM

[12] = molecular target: T4, human recombinant lipoxin A4 receptor …; experiment: radioligand binding; remark: listed apart in the source
human ALXR (ALXR/FPRL1) = molecular target: T5, human ALXR (ALXR/FPRL1) (Homo sapiens, UniProt P25090); settings: at much higher concentrations than LXA4; cited from earlier work
T5 sequence (P25090 1-351): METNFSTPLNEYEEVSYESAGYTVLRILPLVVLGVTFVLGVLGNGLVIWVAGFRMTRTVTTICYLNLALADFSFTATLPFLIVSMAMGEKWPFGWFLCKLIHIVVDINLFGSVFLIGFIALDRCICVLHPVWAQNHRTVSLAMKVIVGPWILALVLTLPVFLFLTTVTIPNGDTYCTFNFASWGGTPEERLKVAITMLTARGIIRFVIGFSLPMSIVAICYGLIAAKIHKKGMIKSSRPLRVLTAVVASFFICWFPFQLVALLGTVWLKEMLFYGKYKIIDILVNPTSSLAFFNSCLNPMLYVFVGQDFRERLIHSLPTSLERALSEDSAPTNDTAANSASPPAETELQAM

[13] = tested on: human PMN oxidative burst; settings: cited from earlier work
ALXR/FPRL1 [14] = settings: cited from earlier work

Molecule: O=c1c(-c2ccc(O)cc2)coc2cc(O)cc(O)c12 [genistein, reference compound]
block of Ac2-26 calcium mobilization response (human PMNs [1]; Supplementary Fig. B, panel c): partially blocked
modulation of LXA4-regulated PMN transmigration and adhesion [2]: modulates LXA4-regulated PMN transmigration and adhesion

Molecule: CCCCCC(C)(O)/C=C/C=C\C=C\C=C\[C@@H](O)[C@@H](O)CCCC(=O)O (mixture of isomers) [ATLa1, 15(R/S)-methyl-LXA4]
block of Ac2-26-evoked chemotaxis, human PMNs (human PMNs [3]; ATLa1 10 or 100 nM, 30 min, 37 °C, Ac2-26 1–10 μM): clearly blocked Ac2-26 evoked chemotaxis
chemotactic activity, human PMNs (human PMNs [3]; Ac2-26 1–10 μM or ATLa1 alone 10–100 nM): did not evoke chemotaxis
chemotaxis responses, CHO-Gqo-ALXR cells [4]: clear chemotaxis responses

Molecule: O=C(O)CCC[C@H](O)[C@H](O)/C=C/C=C/C=C\C=C\[C@@H](O)COc1ccc(F)cc1 [ATLa, 15-epi-16-(para-fluoro)-phenoxy-LXA4]
inhibition of PMN infiltration, i.v. ATLa 5 μg ([5]; 5 μg per mouse (~12 nmol) i.v. 15 min before Zymosan A, n = 6–8): ~ 40%
inhibition of PMN infiltration, administered (in words) ([5]; ATLa 0.5–5 μg, Ac2-26 5–100 μg i.v., n = 6–8): potent inhibitors of PMN infiltration

Molecule: C[C@@H]1C[C@H]2[C@@H]3CCC4=CC(=O)C=C[C@]4(C)[C@@]3(F)[C@@H](O)C[C@]2(C)[C@@]1(O)C(=O)CO [DEX, dexamethasone, reference compound]
inhibition of Zymosan A-driven PMN infiltration ([5]; DEX alone 10 μg into pouch 15 min before Zymosan A (1 mg)): 53%

competition for specific [^125I-Tyr]Ac2-26 binding (in words) (recombinant ALXR/FPRL1): specifically competed
competition for specific [^125I-Tyr]Ac2-26 binding, adherent PMNs (in words) [7]: retained their ability to compete
Molecule: CCCCC[C@H](O)/C=C/C=C\C=C\C=C\[C@@H](O)[C@@H](O)CCCC(=O)O [LXA4, lipoxin A4, reference compound]
competition for [^3H]LTB4 binding [6]: neither LXA4 (ref. [18]) nor Ac2-26 peptide competed
competition for [^125I-Tyr]Ac2-26 binding to human PMN (in words) (human PMNs (ALXR/FPRL1); suspension): competed for [^125I-Tyr]Ac2-26 peptide binding to human PMN
enhanced uptake of apoptotic neutrophils by monocytes/macrophages (monocytes/macrophages): enhance the uptake of apoptotic neutrophils

Molecule: CC(=O)Oc1ccccc1C(=O)O [ASA, Aspirin, reference compound]
inhibition of Zymosan A-driven PMN infiltration ([5]; ASA alone 1 mg into pouch 15 min before Zymosan A (1 mg)): 36%
15-epi-LXA4 (ATL) generation in ASA-treated animals (15-epi-LXA4): generated and present in ASA-treated animals at 4 hours that diminished by 16 hours

Molecule: Ac2-6: ANXA1-derived peptide (Ac-AMVSE; UniProt P04083 2-6, looked up, fragment)
inhibition of PMN infiltration, i.v. peptides (in words) ([5]; i.v. tail vein 15 min prior to 1 mg Zymosan A, 6–12 mice): inhibited PMN infiltration in a dose-dependent fashion

B1: hrANXA1: human recombinant annexin 1 (protein)
chain: MAMVSEFLKQAWFIENEEQEYVQTVKSSKGGPGSAVSPYPTFNPSSDVAALHKAIMVKGVDEATIIDILTKRNNAQRQQIKAAYLQETGKPLDETLKKALTGHLEEVVLALLKTPAQFDADELRAAMKGLGTDEDTLIEILASRTNKEIRDINRVYREELKRDLAKDITSDTSGDFRNALLSLAKGDRSEDFGVNEDLADSDARALYEAGERRKGTDVNVFNTILTTRSYPQLRRVFQKYTKYSKHDMNKVLDLELKGDIEKCLTAIVKCATSKPAFFAEKLHQAMKGVGTRHKALIRIMVSRSEIDMNDIKAFYQKMYGISLCQAILDETKGDYEKILVALCGGN
effect on cellular response to subsequent fMLP (in words) (human PMNs [1]; Ac2-26 10 μM, hrANXA1 0.5 μM): did not affect the cellular response

B2: ANXA1: protein of 346 amino acids and a member of the annexin superfamily, highly abundant PMN-derived protein induced by glucocorticoids (protein, UniProt P04083 2-346, looked up)
Annexin A1: AMVSEFLKQAWFIENEEQEYVQTVKSSKGGPGSAVSPYPTFNPSSDVAALHKAIMVKGVDEATIIDILTKRNNAQRQQIKAAYLQETGKPLDETLKKALTGHLEEVVLALLKTPAQFDADELRAAMKGLGTDEDTLIEILASRTNKEIRDINRVYREELKRDLAKDITSDTSGDFRNALLSLAKGDRSEDFGVNEDLADSDARALYEAGERRKGTDVNVFNTILTTRSYPQLRRVFQKYTKYSKHDMNKVLDLELKGDIEKCLTAIVKCATSKPAFFAEKLHQAMKGVGTRHKALIRIMVSRSEIDMNDIKAFYQKMYGISLCQAILDETKGDYEKILVALCGGN
ANXA1 generation in exudates (ANXA1): low at 4 hours and much higher at 16 hours
competition for specific [^125I-Tyr]Ac2-26 binding (in words) (recombinant ALXR/FPRL1): competed for [^125I-Tyr]Ac2-26 binding with similar affinity
reduction of ANXA1 interactions with circulating leukocytes or peritoneal macrophages in FPR-deficient mice [8]: ~ 40%
co-immunoprecipitation of ANXA1 with ALXR/FPRL1, non-adherent PMNs (ALXR/FPRL1 [9]): not co-immunoprecipitated
inhibition of PMN transmigration and phagocytosis [10]: potent inhibitors of PMN transmigration and phagocytosis

IC50 [11]: ~300 nM
Molecule: Ac-AMVSEFLKQAWFIENEEQEYVQTVK [ANXA1-derived peptide Ac2-26 (unlabelled)]

IC50 [12]: ~20000 nM
IC50 [11]: ~300 nM
Molecule: Ac-AMVSEFLKQAW [ANXA1-derived peptide Ac2-12]

IC50 (human PMNs (ALXR/FPRL1); read-out: apparent IC50, competition for specific [^125I-Tyr]Ac2-26 binding, human PMNs in suspension): ~1000 nM
competition for specific [^125I-Tyr]Ac2-26 binding, adherent PMNs (in words) [7]: retained their ability to compete
B3: SAA: a proteolytic product of the acute phase response (protein, UniProt P0DJI8 19-122, looked up)
Serum amyloid A-1 protein: RSFFSFLGEAFDGARDMWRAYSDMREANYIGSDKYFHARGNYDAAKRGPGGAWAAEVITDARENIQRFFGHGAEDSLADQAANEWGRSGKDPNHFRPAGLPEKY
competition for specific [^3H]LXA4 binding (in words) (human ALXR (ALXR/FPRL1)): competes for specific [^3H]LXA4 binding
inhibition of human PMN oxidative burst [13]: inhibits human PMN oxidative burst
activation of HEK293 cells expressing ALXR/FPRL1 (ALXR/FPRL1 [14]): activates HEK293 cells expressing ALXR/FPRL1

Kd [12]: ~900 nM
Molecule: Ac-AMVSEFLKQAWFIENEEQEY(125I)VQTVK [[125I-Tyr]Ac2-26 peptide (radio-iodinated ANXA1-derived peptide Ac2-26)]
